What was measured:
[1] = system: Rb-E2F1; experiment: Immunoprecipitation with Rb antibody and Western blot with E2F1 antibody from NPCs; format: cell-based, mouse; parameters: dose or concentration left out as unconfirmed; settings: NPCs grown in indicated glucose concentration
Method: FIG. 56. This figure illustrates that energy restriction and growth factor signaling utilize the AMPK-Rb axis to enhance NPC proliferation. (A) Immunoprecipitation assay using Rb antibody and Western blot with E2F1 antibody from NPCs grown in the indicated glucose concentration in the absence or presence of CC ([…]). (B) Immunohistochemistry of saggital sections of E14.5 wildtype and β1−/− body using pHistoneH3 antibody (red).
(§1) Cultured NPCs or MEFs were lysed with MAPK lysis buffer (20 mM Tris-HCL, pH 7.5, 150 mM, NaCl, 1 mM EGTA, 1 mM EDTA, 1% TritonX-100, 2.5 mM sodium pyrophosphate, 1 mM β-glycerophosphate, 1 mM sodium vanadate, 1 mM PMSF, 1 mM DTT and protease inhibitor cocktail). […] The immunoprecipitated proteins were analyzed by standard immunoblot analysis. […]
AMPK is integrally involved in regulating cellular energy homeostasis and is activated by low cellular ATP levels, such as occurs by limiting oxygen or glucose supplies or exercise, conditions that enhance proliferative capacity of stem cells (Burgers et al., Exp. Brain Res. 188, 33-43, 2008; Fu et al., Diabetologia 49, 1027-1038, 2006; Stolzing et al., Rejuvenation Res. 9, 31-35, 2006). To explore whether the proliferative effects of glucose restriction are manifested through activation of the AMPK-Rb axis, we monitored the growth of WT NPCs cultured in 2.5-25 mM (the amount present in neurobasal medium) glucose for 48 hr. […]

[2] = system: WT NPCs; experiment: Proliferation assay of WT NPCs cultured 48 hr under glucose-limiting conditions; format: cell-based, mouse; settings: 2.5-25 mM glucose
Method: FIG. 54. This figure illustrates that energy restriction and growth factor signaling utilize the AMPK-Rb axis to enhance NPC proliferation. (A) Densitometric analysis of WT NPCs using indicated antibodies after 2-hr growth factor stimulation in the presence or absence of AMPK inhibitor compound C (CC; […]). (B and C) Proliferation assay of WT NPCs (B) and β1−/−NPCs (C) cultured for 48 hr under glucose-limiting conditions (Cont=25 Mm glucose, which is the amount in neurobasal medium). Data are representative of three independent experiments (#p=0.07; *p % 0.005). Error bars indicate SD. […]
Neurospheres were dissected from E12.5 CNS telencephalic lobes and cultured in neurobasal medium supplemented with B27 and N2, as described previously (Dasgupta, B. and Gutmann, D. H., J. Neurosci. 25, 5584-5594, 2005). […] At each time point, resulting neurospheres were trypsinized and counted on a hemocytometer. For self-renewal assays, single neurospheres were picked up by pipette and neurosphere diameter was measured individually under microscope. Ten similar-sized neurospheres of each genotype were triturated individually before plating, and the number of resulting secondary neurospheres generated per primary neurosphere was counted after 6 days. Neurosphere diameters were measured using Metamorph software. […]

[3] = system: Neural Stem and Progenitor cells (NPCs); experiment: NPC proliferation: count of trypan blue negative (live) cells after 48 hours of growth; format: cell-based, mouse; settings: E12.5 forebrain wildtype NPCs, vs DMSO, p<0.001
Method: FIG. 26. […] Embryonic day 12.5 forebrain wildtype NPCs were cultured for 4 days and seeded as single cells in presence of DMSO (control), or the AMPK inhibitors Compound C (10 μM) and Adenine 9-β-D-arabinofuranoside (Ara A 1 mM). Following 48 hours of growth in medium supplemented with EGF ([…]) and bFGF ([…]), neurospheres were trypsinized and trypan blue negative (live) cells were counted on a hemocytometer. * p<0.001
Neurospheres were dissected from E12.5 CNS telencephalic lobes and cultured in neurobasal medium supplemented with B27 and N2, as described previously (Dasgupta, B. and Gutmann, D. H., J. Neurosci. 25, 5584-5594, 2005). […] At each time point, resulting neurospheres were trypsinized and counted on a hemocytometer. For self-renewal assays, single neurospheres were picked up by pipette and neurosphere diameter was measured individually under microscope. Ten similar-sized neurospheres of each genotype were triturated individually before plating, and the number of resulting secondary neurospheres generated per primary neurosphere was counted after 6 days. Neurosphere diameters were measured using Metamorph software. […] Briefly, NPCs were pulse labeled with […] CFSE at 37° C. for 15 min, washed, and one-half of the cells were analyzed by FACS, while the other half was analyzed after 4 days of growth. […]

[4] = system: AMPK holoenzyme; experiment: Nonradioactive in vitro kinase assay: immunoprecipitated AMPK holoenzyme phosphorylating recombinant Rb fusion protein (residues 701-928); format: biochemical, mouse; settings: AMPK immunoprecipitated from WT NPCs, phospho-Rb800/804 immunoblot
Method: Nonradioactive in vitro kinase assay was performed as previously described (Lee et al., Nature 447, 1017-1020, 2007), with minor modifications. Briefly, WT NPCs were lysed with MAPK buffer, and AMPK was immunoprecipitated from WT NPCs with AMPKα1/2 antibody, washed with a buffer containing 10 mM Tris-Hcl (pH 7.5) and 0.5 M LiCl, and suspended in kinase buffer containing 0.5 mM ATP. CyclinD1/D2 (associated with CDK4/6) was immunoprecipitated with cyclinD1 and cyclinD2 antibodies. Reactions were carried out at 30° C. for 1 hr by adding RB-C fusion protein (residues 701-928; Cell Signaling Technology, Beverly, Mass.) to the reaction mix. Reaction was terminated by adding 6× Laemmli buffer and boiling for 5 min. Samples were resolved in 10% SDS-PAGE, and Western blot analysis was performed with phospho-RbSer^800/804 (Ser^807/811 in human) antibody (Cell Signaling Technology).
The CDK-cyclin D complex is known to phosphorylate Rb at Ser804. […] CDK4/6, which exist in complexes with cyclinD1/D2, were immunoprecipitated using cyclin D1/2 antibodies, and the activity was measured by nonradioactive in vitro kinase assays using bacterially produced Rb fusion protein (residues 701-928) as the substrate. […] In these experiments, phosphorylation was monitored by immunoblot using phosphor-Rb800/804 antibody. […]

[5] = system: AMPK; experiment: Immunoblot of pAMPK and pRb in WT NPCs after growth factor (EGF and FGF) withdrawal and re-administration; format: cell-based, mouse; settings: growth factors withdrawn 2 h, re-administered 1 h in presence of compound C (CC; 5 mM per FIG. 54 legend)
Source text: FIG. 54. This figure illustrates that energy restriction and growth factor signaling utilize the AMPK-Rb axis to enhance NPC proliferation. […] (B and C) Proliferation assay of WT NPCs (B) and β1−/−NPCs (C) cultured for 48 hr under glucose-limiting conditions (Cont=25 Mm glucose, which is the amount in neurobasal medium). Data are representative of three independent experiments (#p=0.07; *p % 0.005). Error bars indicate SD. (D and E) Densitometric analysis using phospho-specific AMPKα^Thr172, Rb^Ser800/804, ACC^Ser79, and pan AMPKα, Rb, and ACC antibodies. AU, arbitrary units.
as §1, with “cocktail). AMPK was immunoprecipitated with AMPKα1/2 antibody (Cell Signaling Technology), Rb was immunoprecipitated with Rb antibody (Santa Cruz Biotechnology, Santa Cruz, Calif.) and cyclinD1/D2 (associated with CDK4/6) was immunoprecipitated with CyclinD1 and CyclinD2 antibodies (Cell Signaling Technology).” for “cocktail).”

Structure (SMILES)	Rb sequestration of E2F1 (Rb-bound E2F1) [1]	NPC growth stimulation by low glucose [2]	neurosphere growth [2]	proliferation of NPCs (live cell count) ([3]; 10 μM)	AMPK phosphorylation of Rb at Ser804 [4]	increase in phosphoAMPK (pAMPK Thr172) on EGF and FGF re-administration [5]	increase in phosphoRb (Ser800/804) on EGF and FGF re-administration [5]	proliferation of NPCs (live cell count) ([3]; 1 mM)
c1cc(-c2cnn3cc(-c4ccc(OCCN5CCCCC5)cc4)cnc23)ccn1 [Compound C, 6-[4-(2-piperidin-1-ylethoxy)-phenyl]-3-pyridin-4-ylpyrazolo[1,5-α]pyrimidine]	higher levels	not observed	severely inhibited	drastically reduces proliferation	could be inhibited	no increase	no increase	–
Nc1ncnc2c1ncn2[C@@H]1O[C@H](CO)[C@@H](O)[C@@H]1O [Ara A, Adenine 9-β-D-arabinofuranoside]	–	–	–	–	–	–	–	drastically reduces proliferation

— patent US8133685B2, “AMPK modulation as a method of regulating stem cell and cancer stem cell proliferation, self-renewal and differentiation” (Washington University, priority 2008, dated 2012)
